Where a name gives a salt, the structure may show the parent alone.
What was measured:
[1] = Mouse PK study (IV and PO); assay type: in vivo; conditions: male, C57BL/6, mouse, plasma, male C57BL/6 mice; for AUC(0-inf): IV 2 mg/kg and PO 10 mg/kg study; for bioavailability / Cmax: po, 10 mg/kg; for bioavailability: IV 2 mg/kg and PO 10 mg/kg, read-out: F % (bioavailability); for Cmax: PO group 10 mg/kg
Experimental: This example describes the pharmacokinetic (PK) data obtained for various compounds of the present disclosure, from studies using mice. The following PK parameters were calculated: • Bioavailability (F %) were calculated using the linear/log trapezoidal rule • Peak plasma concentrations (Cmax (ng/mL)) were taken directly from the plasma concentration vs. time profiles for the PO group • Area under the curve e.g., the area under the concentration curve from time 0 to infinity (AUC0-inf(ng*h/mL)). Experimental Procedures
After intravenous (IV) and oral (PO) administration at 2 mg/kg and 10 mg/kg to male C57BL/6 mice, respectively, the blood samples were collected at the designed sampling time points. All blood samples were transferred into pre-chilled commercial polyethylene microcentrifuge tubes containing K2-EDTA as an anticoagulant. Samples were processed for plasma by centrifugation. Plasma samples was transferred into polypropylene tubes pre-chilled on dry ice and then quickly frozen over dry ice and kept at −70±10° C. until LC-MS/MS analysis. Mice plasma samples were analyzed using qualified bioanalytical methods based on protein precipitation followed by LC-MS/MS analysis. Individual plasma concentration data of each compound was subjected to noncompartmental pharmacokinetic analysis using Phoenix WinNonlin™. Nominal doses were used for pharmacokinetic parameters calculation.

[2] = test system: LPA 18:2 level in rat plasma; assay: In vitro LPA assay, reduction of LPA 18:2 level in rat plasma (LC-MS/MS); assay type: biochemical; conditions: 2 hr at 37° C., LPA 18:2 reduction
Experimental: (§1) Autotaxin (ATX) plays an important role in lysophosphatidic acid (LPA) signaling. An in vitro LPA assay was conducted to determine IC50 values of the test compounds on reduction of LPA 18:2 level in rat or mouse plasma. This example describes the assay data (IC50 value ranges) of exemplary compounds from LPA assays using mouse and rat plasma. Compound GPLG-1690 was assayed as a reference compound.
(§2) The 10 mM DMSO stock solutions of test compounds and 4-fold serial dilutions of the test compounds were prepared at various concentrations. The diluted solutions of the compounds were diluted with 1×PBS (pH 7.5) buffer. 38 μL of rat or mouse plasma samples were mixed with 2 μL of the diluted solutions of the compounds or 2% DMSO solutions in 96-well plate (final 0.1% DMSO). After incubating for 2 hr at 37° C., 120 μL MeOH containing IS (250 ng/mL of LPA 17:0) was added to each well. Mixture was vortexed for 1 min, and then centrifuged for 30 min (4000 rpm, 4° C.). 100 μL supernatant was transferred to a 96-well plate containing 100 μL pure water and the plate was shaken for 10 min. 5 μL supernatant was injected into LC-MS/MS system. No calibration curve will be prepared for LPA 18:2 and all quantifications were performed based on peak area ratios (LPA 18:2/LPA 17:0). For each concentration of compound LPA data were expressed as percentage of reduction (% reduction) using the formula. 100−[((LPA ratio-LPA ratio in control sample after 0 hr incubation)/(LPA ratio in control sample after 2 hr incubation—LPA ratio in control sample after 0 hr incubation))*100]. Data

hATX/ENPP2 = hATX/ENPP2 (Homo sapiens, UniProt Q13822); assay: hATX/ENPP2 biochemical assay using 16:0-LPC as substrate (Amplex Red/choline oxidase/HRP fluorescence); conditions: hENPP2 2.5 nM, LPC (16:0) substrate
Outline: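 Enzyme preincubated with compounds 15 min at room temperature in 50 mM Tris-HCl pH 8.0, 140 mM NaCl, 5 mM CaCl2, 0.01% Triton X-100. Reaction started with 80 μM LPC (16:0) stock plus Amplex Red/choline oxidase/HRP mix; fluorescence (ex 530/em 590 nm) read kinetically. IC50 from slope between 60 and 70 min.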

[3] = test system: LPA 18:2 level in mouse plasma; assay: In vitro LPA assay, reduction of LPA 18:2 level in mouse plasma (LC-MS/MS); assay type: biochemical; conditions: 2 hr at 37° C., LPA 18:2 reduction
Experimental: as §1, §2

SMILES | AUC(0-inf) [1] [ng·h/mL] | bioavailability [1] [%] | Cmax [1] [ng/mL] | IC50 [2] [nM] | IC50 (hATX/ENPP2) [nM] | IC50 [3] [nM]
CCc1nc2ccc(-c3cnc(N4CCN(CC(=O)N5CC[C@H](O)C5)CC4)nc3)cn2c1N(C)c1nc(-c2ccc(F)cc2)c(C#N)s1 [46 (hydrochloride salt), (S)-2-((2-ethyl-6-(2-(4-(2-(3-hydroxypyrrolidin-1-yl)-2-oxoethyl)piperazin-1-yl)pyrimidin-5-yl)imidazo[1,2-a]pyridin-3-yl)(methyl)amino)-4-(4-fluorophenyl)thiazole-5-carbonitrile] |  |  |  | 200 to 800 |  | 200 to 800
CCc1nc2ccc(-c3cnc(N4CCN(C(=O)C5CN(C)C5)CC4)nc3)cn2c1N(C)c1nc(-c2ccc(F)cc2)c(C#N)s1 [79 (hydrochloride salt)] |  |  |  | ≤ 200 | ≤ 20 | 200 to 800
CCc1nc2ccc(-c3cnc(N4CCN(C(=O)C5(CO)CC5)CC4)nc3)cn2c1N(C)c1nc(-c2ccc(F)cc2)c(C#N)s1 [Compound 10, 2-((2-ethyl-6-(2-(4-(1-(hydroxymethyl)cyclopropane-1-carbonyl)piperazin-1-yl)pyrimidin-5-yl)imidazo[1,2-a]pyridin-3-yl)(methyl)amino)-4-(4-fluorophenyl)thiazole-5-carbonitrile] | 26700 | 28 | 4950 | ≤ 200 | ≤ 20 | 200 to 800
CCc1nc2ccc(-c3cnc(N4CCN(CC(=O)N5CC[C@@H](O)C5)CC4)nc3)cn2c1N(C)c1nc(-c2ccc(F)cc2)c(C#N)s1 [45 (hydrochloride salt), (R)-2-((2-ethyl-6-(2-(4-(2-(3-hydroxypyrrolidin-1-yl)-2-oxoethyl)piperazin-1-yl)pyrimidin-5-yl)imidazo[1,2-a]pyridin-3-yl)(methyl)amino)-4-(4-fluorophenyl)thiazole-5-carbonitrile] |  |  |  | ≤ 200 |  | 200 to 800
CCc1nc2ccc(-c3cnc(N4CCC(C(=O)N5CCOCC5)CC4)nc3)cn2c1N(C)c1nc(-c2ccc(F)cc2)c(C#N)s1 [Compound 127, 2-((2-ethyl-6-(2-(4-(morpholine-4-carbonyl)piperidin-1-yl)pyrimidin-5-yl)imidazo [1,2-a]pyridin-3-yl)(methyl)amino)-4-(4-fluorophenyl)thiazole-5-carbonitrile] |  |  |  | ≤ 200 | ≤ 20 | 200 to 800
CCc1nc2ccc(-c3ccc(N4CCN(C(=O)C5CN(C)C5)CC4)nc3)cn2c1N(C)c1nc(-c2ccc(F)cc2)c(C#N)s1 [Compound 86 hydrochloride, 2-((2-ethyl-6-(6-(4-(1-methylazetidine-3-carbonyl)piperazin-1-yl)pyridin-3-yl)imidazo[1,2-a]pyridin-3-yl)(methyl)amino)-4-(4-fluorophenyl)thiazole-5-carbonitrile hydrochloride] |  |  |  | 200 to 800 |  | > 800
CCc1nc2ccc(-c3ccc(N4CCC(C(=O)N5CCCCC5)CC4)nc3)cn2c1N(C)c1nc(-c2ccc(F)cc2)c(C#N)s1 [Compound 121, 2-((2-ethyl-6-(6-(4-(piperidine-1-carbonyl)piperidin-1-yl)pyridin-3-yl)imidazo[1,2-a]pyridin-3-yl)(methyl)amino)-4-(4-fluorophenyl)thiazole-5-carbonitrile] |  |  |  | ≤ 200 | 20 to 200 | 200 to 800
CCc1nc2ccc(-c3ccc(N4CCN(C(=O)N5CCCC5)CC4)nc3)cn2c1N(C)c1nc(-c2ccc(F)cc2)c(C#N)s1 [Compound 85, 2-((2-ethyl-6-(6-(4-(pyrrolidine-1-carbonyl)piperazin-1-yl)pyridin-3-yl)imidazo[1,2-a]pyridin-3-yl)(methyl)amino)-4-(4-fluorophenyl) thiazole-5-carbonitrile] |  |  |  | ≤ 200 | 20 to 200 | 200 to 800
CCc1nc2ccc(-c3ccc(N4CCC(C(=O)N5CCC5)CC4)nc3)cn2c1N(C)c1nc(-c2ccc(F)cc2)c(C#N)s1 [Compound 122, 2-((6-(6-(4-(azetidine-1-carbonyl)piperidin-1-yl)pyridin-3-yl)-2-ethylimidazo[1,2-a]pyridin-3-yl)(methyl)amino)-4-(4-fluorophenyl)thiazole-5-carbonitrile] | 47700 | 57.8 | 7000 |  | ≤ 20 | 
CCc1nc2ccc(-c3cnc(N4CCN(C(=O)N5CCCC5)CC4)nc3)cn2c1N(C)c1nc(-c2ccc(F)cc2)c(C#N)s1 [Compound 42, 2-((2-ethyl-6-(2-(4-(pyrrolidine-1-carbonyl)piperazin-1-yl)pyrimidin-5-yl)imidazo[1,2-a]pyridin-3-yl)(methyl)amino)-4-(4-fluorophenyl)thiazole-5-carbonitrile] |  |  |  | 200 to 800 | ≤ 20 | 200 to 800

The next lines start with the values.

AUC(0-inf) [1] [ng·h/mL] | bioavailability [1] [%] | Cmax [1] [ng/mL] | IC50 [2] [nM] | IC50 (hATX/ENPP2) [nM] | IC50 [3] [nM] | SMILES
13100 | 40 | 3820 | 200 to 800 | 20 to 200 | 200 to 800 | CCc1nc2ccc(-c3ccc(N4CC(C(=O)N5CCC5)C4)nc3)cn2c1N(C)c1nc(-c2ccc(F)cc2)c(C#N)s1 [Compound 124, 2-((6-(6-(3-(azetidine-1-carbonyl)azetidin-1-yl)pyridin-3-yl)-2-ethylimidazo[1,2-a]pyridin-3-yl)(methyl)amino)-4-(4-fluorophenyl)thiazole-5-carbonitrile]
 |  |  | ≤ 200 | 20 to 200 | 200 to 800 | CCc1nc2ccc(-c3ccc(N4CC(NC5(CO)CC5)C4)nc3)cn2c1N(C)c1nc(-c2ccc(F)cc2)c(C#N)s1 [Compound 109, 2-((2-ethyl-6-(6-(3-((1-(hydroxymethyl)cyclopropyl)amino)azetidin-1-yl)pyridin-3-yl)imidazo[1,2-a]pyridin-3-yl)(methyl)amino)-4-(4-fluorophenyl)thiazole-5-carbonitrile]
 |  |  | > 800 |  | > 800 | CCc1nc2c(C)cc(N3CCN(CC(=O)N4CC(O)C4)CC3)cn2c1N(C)c1nc(-c2ccc(F)cc2)c(C#N)s1 [GPLG-1690, Ziritaxestat, reference compound]
 |  |  | 200 to 800 | 20 to 200 | 200 to 800 | CCc1nc2ccc(-c3ccc(C(=O)N4CCCC4)nc3)cn2c1N(C)c1nc(-c2ccc(F)cc2)c(C#N)s1 [Compound 87, 2-((2-ethyl-6-(6-(pyrrolidine-1-carbonyl)pyridin-3-yl)imidazo[1,2-a]pyridin-3-yl)(methyl)amino)-4-(4-fluorophenyl)thiazole-5-carbonitrile]
 |  |  | ≤ 200 | 20 to 200 | 200 to 800 | CCc1nc2ccc(-c3cnc(N4CC(C(=O)N5CCC5)C4)nc3)cn2c1N(C)c1nc(-c2ccc(F)cc2)c(C#N)s1 [Compound 125, 2-((6-(2-(3-(azetidine-1-carbonyl)azetidin-1-yl)pyrimidin-5-yl)-2-ethylimidazo[1,2-a]pyridin-3-yl)(methyl)amino)-4-(4-fluorophenyl)thiazole-5-carbonitrile]
 |  |  | ≤ 200 | ≤ 20 | 200 to 800 | CCc1nc2ccc(-c3ccc(N4CCN(C(=O)C5(CO)CC5)CC4)nc3)cn2c1N(C)c1nc(-c2ccc(F)cc2)c(C#N)s1 [Compound 93, 2-((2-ethyl-6-(6-(4-(1-(hydroxylmethyl)cyclopropane-1-carbonyl)piperazin-1-yl)pyridin-3-yl)imidazo[1,2-a]pyridin-3-yl) (methyl)amino)-4-(4-fluorophenyl)thiazole-5-carbonitrile]
 |  |  | ≤ 200 | ≤ 20 | 200 to 800 | CCc1nc2ccc(-c3ccc(N4CCC(C(=O)N5CCNCC5)CC4)nc3)cn2c1N(C)c1nc(-c2ccc(F)cc2)c(C#N)s1 [Compound 118, 2-((2-ethyl-6-(6-(4-(piperazine-1-carbonyl)piperidin-1-yl)pyridin-3-yl)imidazo[1,2-a]pyridin-3-yl) (methyl)amino)-4-(4-fluorophenyl)thiazole-5-carbonitrile]
